{"source": "paper PMC10507085", "about": "“Pharmacological inhibition of TBK1/IKKε blunts immunopathology in a murine model of SARS-CoV-2 infection” (Nature Communications, 2023)", "assay_in_all_cases": "biochemical", "set-up_in_all_cases": "KINOMEscan competition binding, DNA-tagged kinase against immobilised ligand, qPCR read-out", "details_in_all_cases": "read-out: Percent Control", "key": {"AKT3": {"target": "AKT3 (Homo sapiens, UniProt Q9Y243)", "sequence (Q9Y243 whole entry)": "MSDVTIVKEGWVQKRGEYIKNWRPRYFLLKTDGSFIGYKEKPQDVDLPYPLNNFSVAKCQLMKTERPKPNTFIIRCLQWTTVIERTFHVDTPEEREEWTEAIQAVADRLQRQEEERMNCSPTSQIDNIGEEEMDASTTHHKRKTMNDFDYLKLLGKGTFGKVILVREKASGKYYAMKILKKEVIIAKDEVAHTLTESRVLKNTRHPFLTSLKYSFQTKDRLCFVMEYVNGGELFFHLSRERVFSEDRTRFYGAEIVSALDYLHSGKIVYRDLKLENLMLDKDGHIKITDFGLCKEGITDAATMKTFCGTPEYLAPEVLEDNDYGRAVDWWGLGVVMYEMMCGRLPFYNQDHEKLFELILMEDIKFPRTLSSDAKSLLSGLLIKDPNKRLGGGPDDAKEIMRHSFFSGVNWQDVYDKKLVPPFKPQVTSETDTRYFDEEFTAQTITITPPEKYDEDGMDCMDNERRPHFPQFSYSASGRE"}, "AURKA": {"target": "AURKA (Homo sapiens, UniProt O14965)", "sequence (O14965 whole entry)": "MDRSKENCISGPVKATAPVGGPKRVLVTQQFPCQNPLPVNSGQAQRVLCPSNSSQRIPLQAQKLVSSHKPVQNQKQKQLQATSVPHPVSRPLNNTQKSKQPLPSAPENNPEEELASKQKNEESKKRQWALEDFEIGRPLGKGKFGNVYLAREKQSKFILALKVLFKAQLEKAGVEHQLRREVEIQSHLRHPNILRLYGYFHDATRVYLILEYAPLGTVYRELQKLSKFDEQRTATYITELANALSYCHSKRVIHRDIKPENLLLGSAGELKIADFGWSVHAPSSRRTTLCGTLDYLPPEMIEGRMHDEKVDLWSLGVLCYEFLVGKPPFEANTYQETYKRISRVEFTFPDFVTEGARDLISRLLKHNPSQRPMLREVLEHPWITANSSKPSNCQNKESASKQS"}, "TESK1": {"target": "TESK1 (Homo sapiens, UniProt Q15569)", "sequence (Q15569 whole entry)": "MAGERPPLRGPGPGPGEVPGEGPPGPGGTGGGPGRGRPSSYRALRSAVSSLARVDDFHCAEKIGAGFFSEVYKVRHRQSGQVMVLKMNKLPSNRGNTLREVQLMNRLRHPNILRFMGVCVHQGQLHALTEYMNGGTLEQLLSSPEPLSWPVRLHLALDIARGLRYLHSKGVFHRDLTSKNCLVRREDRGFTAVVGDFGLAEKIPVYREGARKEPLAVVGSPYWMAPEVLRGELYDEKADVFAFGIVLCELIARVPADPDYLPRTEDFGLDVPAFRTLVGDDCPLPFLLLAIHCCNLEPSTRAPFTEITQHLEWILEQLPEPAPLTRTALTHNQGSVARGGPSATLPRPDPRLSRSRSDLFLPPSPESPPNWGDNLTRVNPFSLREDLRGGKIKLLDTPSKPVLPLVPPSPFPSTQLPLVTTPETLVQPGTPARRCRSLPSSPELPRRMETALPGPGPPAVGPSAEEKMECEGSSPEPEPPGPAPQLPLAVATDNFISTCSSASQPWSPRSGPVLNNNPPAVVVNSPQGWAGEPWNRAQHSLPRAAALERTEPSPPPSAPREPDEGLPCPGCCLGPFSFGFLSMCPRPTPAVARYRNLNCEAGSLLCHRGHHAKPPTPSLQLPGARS"}, "IRAK4": {"target": "IRAK4 (Homo sapiens, UniProt Q9NWZ3)"}, "PIP4K2C": {"target": "PIP4K2C (Homo sapiens, UniProt Q8TBX8)"}, "ANKK1": {"target": "ANKK1 (Homo sapiens, UniProt Q8NFD2)"}, "PAK2": {"target": "PAK2 (Homo sapiens, UniProt Q13177)", "sequence (Q13177 whole entry)": "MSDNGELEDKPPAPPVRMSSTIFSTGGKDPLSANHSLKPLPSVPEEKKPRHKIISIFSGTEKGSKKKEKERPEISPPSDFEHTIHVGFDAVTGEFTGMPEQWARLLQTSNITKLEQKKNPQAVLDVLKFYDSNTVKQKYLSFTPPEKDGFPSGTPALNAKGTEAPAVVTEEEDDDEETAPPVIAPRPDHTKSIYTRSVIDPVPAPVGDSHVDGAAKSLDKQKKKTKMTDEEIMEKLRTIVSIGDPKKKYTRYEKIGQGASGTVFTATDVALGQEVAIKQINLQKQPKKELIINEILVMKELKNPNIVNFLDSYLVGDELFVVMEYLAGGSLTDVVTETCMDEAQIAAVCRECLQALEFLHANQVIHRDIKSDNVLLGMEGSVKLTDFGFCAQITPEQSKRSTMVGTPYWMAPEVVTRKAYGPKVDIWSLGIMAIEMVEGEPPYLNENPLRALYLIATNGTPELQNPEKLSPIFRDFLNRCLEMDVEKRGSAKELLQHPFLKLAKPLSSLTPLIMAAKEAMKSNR"}, "HCK": {"target": "HCK (Homo sapiens, UniProt P08631)"}, "KIT-autoinhibited": {"target": "KIT-autoinhibited (Homo sapiens, UniProt P10721)"}, "PIK3C3": {"target": "PIK3C3 (Homo sapiens, UniProt Q8NEB9)"}, "FGFR4": {"target": "FGFR4 (Homo sapiens, UniProt P22455)"}, "PIK3CA": {"target": "PIK3CA (Homo sapiens, UniProt P42336)", "sequence (P42336 whole entry)": "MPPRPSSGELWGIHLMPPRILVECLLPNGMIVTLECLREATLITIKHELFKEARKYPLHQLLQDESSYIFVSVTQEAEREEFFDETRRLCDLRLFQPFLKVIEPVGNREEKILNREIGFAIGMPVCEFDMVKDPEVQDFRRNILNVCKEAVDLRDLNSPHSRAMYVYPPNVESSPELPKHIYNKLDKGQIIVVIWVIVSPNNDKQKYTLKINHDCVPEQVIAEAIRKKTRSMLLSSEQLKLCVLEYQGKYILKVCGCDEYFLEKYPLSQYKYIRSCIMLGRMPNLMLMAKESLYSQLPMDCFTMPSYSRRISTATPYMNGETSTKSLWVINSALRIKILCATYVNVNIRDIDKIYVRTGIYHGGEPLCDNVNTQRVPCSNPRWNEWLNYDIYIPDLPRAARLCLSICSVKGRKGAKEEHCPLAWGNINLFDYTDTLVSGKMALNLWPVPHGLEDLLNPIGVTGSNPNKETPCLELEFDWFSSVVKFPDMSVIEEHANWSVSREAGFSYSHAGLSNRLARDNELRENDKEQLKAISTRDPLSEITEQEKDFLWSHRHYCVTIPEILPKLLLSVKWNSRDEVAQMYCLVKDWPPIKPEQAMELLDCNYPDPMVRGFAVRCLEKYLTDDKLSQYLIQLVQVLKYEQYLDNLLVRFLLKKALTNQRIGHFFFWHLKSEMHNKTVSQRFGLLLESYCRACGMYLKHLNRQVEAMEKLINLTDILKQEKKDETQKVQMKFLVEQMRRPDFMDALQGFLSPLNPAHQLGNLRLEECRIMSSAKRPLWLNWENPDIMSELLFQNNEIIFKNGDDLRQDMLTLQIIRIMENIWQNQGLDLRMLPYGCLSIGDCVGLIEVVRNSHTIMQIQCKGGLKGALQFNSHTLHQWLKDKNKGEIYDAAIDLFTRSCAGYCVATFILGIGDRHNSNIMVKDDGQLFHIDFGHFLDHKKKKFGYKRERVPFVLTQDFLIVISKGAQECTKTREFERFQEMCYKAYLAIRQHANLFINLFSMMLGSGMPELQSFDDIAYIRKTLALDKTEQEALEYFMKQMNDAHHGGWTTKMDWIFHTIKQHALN"}, "CLK4": {"target": "CLK4 (Homo sapiens, UniProt Q9HAZ1)"}, "IKBKB": {"target": "IKBKB (Homo sapiens, UniProt O14920)", "sequence (O14920 whole entry)": "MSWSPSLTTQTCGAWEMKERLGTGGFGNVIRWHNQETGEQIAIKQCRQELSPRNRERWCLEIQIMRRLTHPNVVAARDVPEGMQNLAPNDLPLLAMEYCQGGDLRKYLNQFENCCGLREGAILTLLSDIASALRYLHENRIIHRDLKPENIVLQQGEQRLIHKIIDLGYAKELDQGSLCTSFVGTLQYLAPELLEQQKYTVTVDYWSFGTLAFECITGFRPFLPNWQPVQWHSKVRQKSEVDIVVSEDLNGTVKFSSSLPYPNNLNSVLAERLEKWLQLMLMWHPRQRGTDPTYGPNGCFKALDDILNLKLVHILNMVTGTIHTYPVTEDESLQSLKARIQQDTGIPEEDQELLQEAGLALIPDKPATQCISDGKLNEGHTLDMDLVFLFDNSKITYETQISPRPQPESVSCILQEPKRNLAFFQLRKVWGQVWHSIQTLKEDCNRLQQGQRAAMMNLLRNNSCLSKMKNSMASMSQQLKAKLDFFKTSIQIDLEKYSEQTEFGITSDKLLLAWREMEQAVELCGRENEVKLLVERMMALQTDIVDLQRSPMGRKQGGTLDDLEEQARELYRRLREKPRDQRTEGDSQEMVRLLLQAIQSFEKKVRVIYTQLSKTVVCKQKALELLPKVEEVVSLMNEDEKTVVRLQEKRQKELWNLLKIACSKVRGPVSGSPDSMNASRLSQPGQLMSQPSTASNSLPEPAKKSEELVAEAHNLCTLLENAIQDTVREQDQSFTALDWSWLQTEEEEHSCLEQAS"}, "[1]": {"target": "T1, RSK3(Kin.Dom.1-N-terminal) (Homo sapiens, UniProt Q15349)", "T1 construct": "gene RPS6KA2; Kin.Dom.1 N-terminal"}, "CAMK1D": {"target": "CAMK1D (Homo sapiens, UniProt Q8IU85)"}, "MAPK11": {"target": "MAPK11 (Homo sapiens, UniProt Q15759)", "sequence (Q15759 whole entry)": "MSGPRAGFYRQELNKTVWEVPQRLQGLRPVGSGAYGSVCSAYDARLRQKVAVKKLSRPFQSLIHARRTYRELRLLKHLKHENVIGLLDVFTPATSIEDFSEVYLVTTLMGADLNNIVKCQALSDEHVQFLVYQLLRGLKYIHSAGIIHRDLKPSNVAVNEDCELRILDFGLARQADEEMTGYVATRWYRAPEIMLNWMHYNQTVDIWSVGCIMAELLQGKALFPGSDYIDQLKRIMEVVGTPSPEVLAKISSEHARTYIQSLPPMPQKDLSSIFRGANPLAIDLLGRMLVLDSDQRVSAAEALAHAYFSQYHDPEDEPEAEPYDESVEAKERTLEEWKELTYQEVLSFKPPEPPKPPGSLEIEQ"}, "CDK11B": {"target": "CDK11B (Homo sapiens, UniProt P21127)", "sequence (P21127 whole entry)": "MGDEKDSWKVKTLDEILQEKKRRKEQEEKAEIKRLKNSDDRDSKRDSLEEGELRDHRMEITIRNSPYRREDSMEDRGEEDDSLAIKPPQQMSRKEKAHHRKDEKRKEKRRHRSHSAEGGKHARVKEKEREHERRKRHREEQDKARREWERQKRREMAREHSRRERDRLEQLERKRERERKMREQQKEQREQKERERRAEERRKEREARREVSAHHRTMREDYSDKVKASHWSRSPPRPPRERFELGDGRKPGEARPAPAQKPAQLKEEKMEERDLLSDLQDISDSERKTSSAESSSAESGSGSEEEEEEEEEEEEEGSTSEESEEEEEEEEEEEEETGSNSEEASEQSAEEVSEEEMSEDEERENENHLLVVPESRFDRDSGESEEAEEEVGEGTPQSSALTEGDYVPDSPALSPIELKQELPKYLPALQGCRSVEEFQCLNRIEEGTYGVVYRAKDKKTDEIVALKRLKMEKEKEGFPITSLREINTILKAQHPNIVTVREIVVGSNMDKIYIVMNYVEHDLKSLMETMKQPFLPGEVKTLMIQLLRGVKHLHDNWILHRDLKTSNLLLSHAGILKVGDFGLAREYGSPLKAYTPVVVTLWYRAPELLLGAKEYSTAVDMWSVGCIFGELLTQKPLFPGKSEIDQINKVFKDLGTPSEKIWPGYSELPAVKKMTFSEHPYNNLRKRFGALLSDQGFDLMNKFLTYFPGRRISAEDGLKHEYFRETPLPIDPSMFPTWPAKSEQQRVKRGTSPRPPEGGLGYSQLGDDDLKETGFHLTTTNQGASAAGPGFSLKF"}, "CDC42BPG": {"target": "CDC42BPG (Homo sapiens, UniProt Q6DT37)"}, "NEK7": {"target": "NEK7 (Homo sapiens, UniProt Q8TDX7)"}}}
{"smiles": "Oc1ccc(C2=Cc3ccc(O)cc3OC2)cc1", "note": "[compound 1, idronoxil]", "values": [{"measurement": "remaining binding at 10 µM", "setting": "AKT3", "value": 84, "unit": "%"}, {"measurement": "remaining binding at 10 µM", "setting": "AURKA", "value": 92, "unit": "%"}, {"measurement": "remaining binding at 10 µM", "setting": "TESK1", "value": 86, "unit": "%"}, {"measurement": "remaining binding at 10 µM", "setting": "IRAK4", "value": 79, "unit": "%"}, {"measurement": "remaining binding at 10 µM", "setting": "PIP4K2C", "value": 52, "unit": "%"}, {"measurement": "remaining binding at 10 µM", "setting": "ANKK1", "value": 66, "unit": "%"}, {"measurement": "remaining binding at 10 µM", "setting": "PAK2", "value": 49, "unit": "%"}, {"measurement": "remaining binding at 10 µM", "setting": "HCK", "value": 83, "unit": "%"}, {"measurement": "remaining binding at 10 µM", "setting": "KIT-autoinhibited", "value": 60, "unit": "%"}, {"measurement": "remaining binding at 10 µM", "setting": "PIK3C3", "value": 34, "unit": "%"}, {"measurement": "remaining binding at 10 µM", "setting": "FGFR4", "value": 95, "unit": "%"}, {"measurement": "remaining binding at 10 µM", "setting": "PIK3CA", "value": 89, "unit": "%"}, {"measurement": "remaining binding at 10 µM", "setting": "CLK4", "value": 36, "unit": "%"}, {"measurement": "remaining binding at 10 µM", "setting": "IKBKB", "value": 73, "unit": "%"}, {"measurement": "remaining binding at 10 µM", "setting": "[1]", "value": 89, "unit": "%"}, {"measurement": "remaining binding at 10 µM", "setting": "CAMK1D", "value": 100, "unit": "%"}, {"measurement": "remaining binding at 10 µM", "setting": "MAPK11", "value": 85, "unit": "%"}, {"measurement": "remaining binding at 10 µM", "setting": "CDK11B", "value": 96, "unit": "%"}, {"measurement": "remaining binding at 10 µM", "setting": "CDC42BPG", "value": 93, "unit": "%"}, {"measurement": "remaining binding at 10 µM", "setting": "NEK7", "value": 99, "unit": "%"}]}
